One substance from patent US8183001B2 (priority 2006, dated 2012) can be followed below.

Holding throughout (assay type): cell-based, C. elegans
The test system of experiment [1] is UNC-49B-PS7. As to the method: (§1) Electrophysiology: Plasmids containing wild-type and mutagenized GABAA receptor subunits were linearized and transcribed in vitro using T3 RNA polymerase (mMessage mMachine T3 kit, Ambion, Austin Tex.). UNC-49B mRNA was injected into Xenopus laevis oocytes at 0.5 μg/μl either alone, or in a mixture with 0.5 μg/μl UNC-49C. […] The injection volume ranged between 27.6 nl to 50.6 nl. […] Cells were voltage clamped at −60 mV. All recordings were performed at room temperature.

Experiment [2] concerns the target double chimera (M1 + linker) (Caenorhabditis elegans, UniProt G5ECD3+G5EE10). The settings on record: at EC50 GABA. As to the method: as §1
The target in another experiment is X(I265S) (Caenorhabditis elegans, UniProt G5ECD3, I262F/I265S/M258L/N259Q/N305R/S264A/T257F/V261F). The settings on record: at EC50 GABA. As to the method:
as §1

In another experiment the target is YZ chimera (Caenorhabditis elegans, UniProt G5ECD3, A281S/E280D/I265S/I267V/I270L/L277I/N259Q/N305R/S282A/T269V/V261F/V273I). Particulars: at EC50 GABA. The procedure: as §1
The target in experiment [3] is X(I265S, Q259N) (Caenorhabditis elegans, UniProt G5ECD3, I262F/I265S/M258L/N305R/S264A/T257F/V261F). Particulars: X(I265S, Q259N); at EC50 GABA. As to the method:
as §1

The target in a further experiment is M1-R (Caenorhabditis elegans, UniProt G5ECD3+G5EE10, N305R, form not given). The settings on record: at EC50 GABA. The procedure:
as §1

The next experiment deals with X chimera (Caenorhabditis elegans, UniProt G5ECD3, I262F/M258L/N259Q/N305R/S264A/T257F/V261F). The settings on record: at EC50 GABA. As to the method:
as §1

A further experiment addresses X(I270L) (Caenorhabditis elegans, UniProt G5ECD3, I262F/I270L/M258L/N259Q/N305R/S264A/T257F/V261F). The settings on record: at EC50 GABA. The procedure:
as §1

In a further experiment the target is Y chimera (Caenorhabditis elegans, UniProt G5ECD3, I265S/I267V/I270L/N259Q/N305R/T269V/V261F/V273I). Particulars: Y chimera; at EC50 GABA. As to the method: as §1
In a further experiment the target is X(V273I) (Caenorhabditis elegans, UniProt G5ECD3, I262F/M258L/N259Q/N305R/S264A/T257F/V261F/V273I). The settings on record: at EC50 GABA. The procedure: as §1
Experiment [4] addresses UNC-49B-PS7 (Caenorhabditis elegans, UniProt G5ECD3, I262F/I265S/M258L/N259Q/N305R/S264A/T257F). Particulars: UNC-49B-PS7; at EC50 GABA. As to the method: as §1
Experiment [5] has as its system X(I265S, Q259N). The settings on record: residue 259 reverted to asparagine, versus X(I265S). The procedure: as §1
The target in another experiment is TM chimera (Caenorhabditis elegans, UniProt G5ECD3+G5EE10). Particulars: TM chimera homomer; 5 μM PS. The procedure: as §1
A further experiment deals with M1 chimera (Caenorhabditis elegans, UniProt G5ECD3+G5EE10). Particulars: at EC50 GABA. As to the method:
as §1

The target in another experiment is Z chimera (Caenorhabditis elegans, UniProt G5ECD3, A281S/E280D/L277I/N259Q/N305R/S282A/V261F). The settings on record: at EC50 GABA. The procedure: as §1
For experiment [6], the target named is XY chimera (Caenorhabditis elegans, UniProt G5ECD3, I262F/I265S/I267V/I270L/M258L/N259Q/N305R/S264A/T257F/T269V/V261F/V273I). Particulars: XY chimera; at EC50 GABA. As to the method: as §1
The next experiment deals with N305R (Caenorhabditis elegans, UniProt G5ECD3, N305R). Particulars: at EC50 GABA. The procedure:
as §1

A further experiment addresses UNC-49B homomer (Caenorhabditis elegans, UniProt G5ECD3). Particulars: UNC-49B homomer. The procedure:
as §1

The next experiment deals with X(I267V) (Caenorhabditis elegans, UniProt G5ECD3, I262F/I267V/M258L/N259Q/N305R/S264A/T257F/V261F). Particulars: at EC50 GABA. The procedure: as §1
Experiment [7] relates to XY chimera. Particulars: XY chimera versus X chimera. As to the method: as §1
The target of another experiment is linker chimera (Caenorhabditis elegans, UniProt G5ECD3, N305R, form not given). The settings on record: at EC50 GABA. The procedure: as §1
Sequence of linker chimera (G5ECD3 23-506, stated change not applied): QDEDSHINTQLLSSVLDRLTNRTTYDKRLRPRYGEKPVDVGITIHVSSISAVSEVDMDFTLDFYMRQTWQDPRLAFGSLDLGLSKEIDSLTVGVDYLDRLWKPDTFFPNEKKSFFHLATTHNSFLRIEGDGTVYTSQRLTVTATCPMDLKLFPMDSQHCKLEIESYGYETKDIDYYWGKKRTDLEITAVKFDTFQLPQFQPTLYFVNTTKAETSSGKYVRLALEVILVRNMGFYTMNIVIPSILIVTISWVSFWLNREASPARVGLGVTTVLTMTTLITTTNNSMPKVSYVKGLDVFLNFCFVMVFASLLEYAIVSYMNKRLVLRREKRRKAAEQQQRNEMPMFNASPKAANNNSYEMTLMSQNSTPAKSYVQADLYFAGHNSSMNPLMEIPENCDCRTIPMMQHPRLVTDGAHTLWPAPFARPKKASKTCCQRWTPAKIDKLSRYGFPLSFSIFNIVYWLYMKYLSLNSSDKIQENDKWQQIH

Sequence of UNC-49B homomer (G5ECD3 entry or part of it): as the sequence (G5ECD3 23-506, stated change not applied) above
Sequence of M1-R (G5ECD3 entry or part of it, stated change not applied): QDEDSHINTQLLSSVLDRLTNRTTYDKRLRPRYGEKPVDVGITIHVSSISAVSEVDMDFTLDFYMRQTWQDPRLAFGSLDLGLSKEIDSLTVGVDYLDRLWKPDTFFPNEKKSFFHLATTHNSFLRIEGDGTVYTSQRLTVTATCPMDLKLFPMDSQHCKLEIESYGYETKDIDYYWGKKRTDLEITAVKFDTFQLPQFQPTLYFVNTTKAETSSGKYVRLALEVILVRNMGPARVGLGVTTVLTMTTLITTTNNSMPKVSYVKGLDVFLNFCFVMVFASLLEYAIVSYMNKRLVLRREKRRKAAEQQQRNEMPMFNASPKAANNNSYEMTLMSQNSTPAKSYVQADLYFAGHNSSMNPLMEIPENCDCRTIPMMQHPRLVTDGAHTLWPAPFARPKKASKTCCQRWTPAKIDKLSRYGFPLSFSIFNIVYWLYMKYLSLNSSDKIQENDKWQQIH
Sequence of M1-R (G5EE10 256-283, stated change not applied): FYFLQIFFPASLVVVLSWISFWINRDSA
Sequence of M1 chimera (G5ECD3 entry or part of it, change not shown): as the sequence (G5ECD3 entry or part of it, stated change not applied) above
Sequence of TM chimera (G5EE10 256-448, change not shown): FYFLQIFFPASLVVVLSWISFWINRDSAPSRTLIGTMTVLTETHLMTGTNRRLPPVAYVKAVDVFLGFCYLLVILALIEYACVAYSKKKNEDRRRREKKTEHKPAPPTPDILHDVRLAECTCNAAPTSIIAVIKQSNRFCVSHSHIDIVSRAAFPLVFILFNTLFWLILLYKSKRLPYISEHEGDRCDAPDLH
Sequence of TM chimera (G5ECD3 23-254, change not shown): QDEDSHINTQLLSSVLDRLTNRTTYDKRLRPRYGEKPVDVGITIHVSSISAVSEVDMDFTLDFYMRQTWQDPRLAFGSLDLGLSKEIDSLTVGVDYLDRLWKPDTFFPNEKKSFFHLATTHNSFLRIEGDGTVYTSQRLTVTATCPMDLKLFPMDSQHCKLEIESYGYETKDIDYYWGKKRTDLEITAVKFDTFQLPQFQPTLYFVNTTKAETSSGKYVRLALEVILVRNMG
Sequence of X(I270L) (G5ECD3 23-506, stated change not applied): as the sequence (G5ECD3 23-506, stated change not applied) above
Sequence of XY chimera (Caenorhabditis elegans, UniProt G5ECD3, I262F/I265S/I267V/I270L/M258L/N259Q/N305R/S264A/T257F/T269V/V261F/V273I) (G5ECD3 23-506, stated change not applied): as above
Sequence of UNC-49B-PS7 (Caenorhabditis elegans, UniProt G5ECD3, I262F/I265S/M258L/N259Q/N305R/S264A/T257F) (G5ECD3 23-506, stated change not applied): as above
Sequence of N305R (G5ECD3 23-506, stated change not applied): as above
Sequence of YZ chimera (G5ECD3 23-506, stated change not applied): as above
Sequence of Z chimera (G5ECD3 23-506, stated change not applied): as above
Sequence of X(I265S, Q259N) (Caenorhabditis elegans, UniProt G5ECD3, I262F/I265S/M258L/N305R/S264A/T257F/V261F) (G5ECD3 23-506, stated change not applied): as above
Sequence of X chimera (G5ECD3 23-506, stated change not applied): as above
Sequence of X(I267V) (G5ECD3 23-506, stated change not applied): as above
Sequence of double chimera (M1 + linker) (G5ECD3 23-506, stated change not applied): as above
Sequence of double chimera (M1 + linker) (G5EE10 entry or part of it, stated change not applied): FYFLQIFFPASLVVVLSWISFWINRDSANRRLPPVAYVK
Sequence of X(V273I) (G5ECD3 23-506, stated change not applied): as the sequence (G5ECD3 23-506, stated change not applied) above
Sequence of Y chimera (G5ECD3 23-506, stated change not applied): as above
Sequence of X(I265S) (G5ECD3 23-506, stated change not applied): as above

For pregnenolone sulfate [PS], the figures for the “fold increase in PS sensitivity” value in the experiment on UNC-49B-PS7 [1] (UNC-49B-PS7 versus UNC-49B subunit) and in the experiment with XY chimera [7] were 58 fold and 3.7 fold, respectively. Besides, in the experiment on UNC-49B-PS7 [1] (UNC-49B-PS7 versus UNC-49B/C heteromer), the “fold difference in PS sensitivity” value stood at 1.4 fold. In addition, the “PS Slope coefficient” value is recorded as 1.4 ± 0.1 (n = 4) in experiment [2]; 1.1 ± 0.1 at X(I265S); 3.5 ± 1.6 at YZ chimera; 0.9 ± 0.0 at X(I265S, Q259N) [3]; 1.2 ± 0.1 (n = 8) at M1-R; 1.0 ± 0.03 on X chimera. Moreover, the “PS Slope coefficient” value is recorded as 1.5 ± 0.1 at X(I270L); 10.4 ± 1.3 at Y chimera; 1.0 ± 0.02 at X(V273I); 1.0 ± 0.0 on UNC-49B-PS7 [4]; 0.9 ± 0.1 (n = 4) on M1 chimera; 1.05 ± 0.03 on Z chimera. In addition, the “PS Slope coefficient” value on XY chimera [6] is on record as 1.6 ± 0.2; at N305R it was 1.9 ± 0.2 (n = 4); at UNC-49B homomer (at EC50 GABA), 0.7; at X(I267V), 1.1 ± 0.05; on linker chimera, 1.3 ± 0.2 (n = 5). Further, the “fold reduction in PS sensitivity” value with X(I265S, Q259N) [5] worked out at 2.2 fold. The PS inhibition entry at TM chimera is listed as “strongly inhibited”. Moreover, at UNC-49B homomer (100 μM PS, EC50 GABA), the “inhibition of GABA-evoked current” value was 40%.
